The record followed here is ChEMBL document CHEMBL4665688, “Discovery of AB680: A Potent and Selective Inhibitor of CD73” (J Med Chem, 2020).

Data set [1] concerns the target T1, Nuclear receptor subfamily 1 group I member 2 (Homo sapiens, UniProt O75469).
T1 sequence (O75469 whole entry): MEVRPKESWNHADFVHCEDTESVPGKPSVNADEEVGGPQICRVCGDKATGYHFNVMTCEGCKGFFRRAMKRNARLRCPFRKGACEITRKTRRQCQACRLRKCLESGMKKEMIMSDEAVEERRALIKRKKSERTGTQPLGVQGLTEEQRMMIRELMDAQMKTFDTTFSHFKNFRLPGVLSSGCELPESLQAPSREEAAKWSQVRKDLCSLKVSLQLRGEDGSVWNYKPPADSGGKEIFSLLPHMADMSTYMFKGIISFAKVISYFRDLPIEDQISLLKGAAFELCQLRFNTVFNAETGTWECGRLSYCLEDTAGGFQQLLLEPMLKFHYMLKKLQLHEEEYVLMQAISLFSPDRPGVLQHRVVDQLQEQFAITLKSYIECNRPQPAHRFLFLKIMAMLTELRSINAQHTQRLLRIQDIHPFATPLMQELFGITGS
The data set can be described thus: Activation of PXR (unknown origin) by reporter gene assay. Type of data set: ADME. Background: A reporter such as luciferase makes a cellular process visible.

Data set [2] can be described thus: Chemical stability of the compound in basic condition. The class given is physicochemical.
A short description of data set [3]: Clearance in Sprague-Dawley rat at 0.5 mg/kg, iv. The class given is ADME, organism-based. To be noted: in vivo.
For data set [4], the target named is T2, Ectonucleoside triphosphate diphosphohydrolase 1 (Homo sapiens, UniProt P49961).
T2 sequence (P49961 whole entry): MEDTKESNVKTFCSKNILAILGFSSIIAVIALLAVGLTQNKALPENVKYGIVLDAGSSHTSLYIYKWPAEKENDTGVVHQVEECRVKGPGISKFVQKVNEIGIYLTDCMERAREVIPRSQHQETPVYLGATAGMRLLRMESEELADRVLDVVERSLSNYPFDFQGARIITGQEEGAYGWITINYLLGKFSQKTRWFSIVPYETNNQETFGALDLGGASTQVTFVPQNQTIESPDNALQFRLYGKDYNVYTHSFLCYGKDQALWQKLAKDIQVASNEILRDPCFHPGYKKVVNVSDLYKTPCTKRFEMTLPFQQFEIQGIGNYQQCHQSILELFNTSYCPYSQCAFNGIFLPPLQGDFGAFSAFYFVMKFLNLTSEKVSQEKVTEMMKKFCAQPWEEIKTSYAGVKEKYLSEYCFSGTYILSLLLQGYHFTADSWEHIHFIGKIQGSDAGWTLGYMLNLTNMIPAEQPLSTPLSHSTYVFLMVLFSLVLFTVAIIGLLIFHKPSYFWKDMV
The data set can be described thus: Inhibition of CD39 (unknown origin).

Data set [5] is described as follows: Fraction unbound in mouse plasma. Type of data set: ADME, cell-free. Also on record: dose or concentration left out as unconfirmed.
A short description of data set [6]: Volume of distribution at steady state in Sprague-Dawley rat at 0.5 mg/kg, iv. The class given is ADME, organism-based. As to conditions: in vivo, read-out: Vdss; call rule not given here.
In data set [7] the target is T3, Cytochrome P450 2C9 (Homo sapiens, UniProt P11712). The data set can be described thus: Inhibition of CYP2C9 in human liver microsomes using diclofenac as substrate incubated for 5 to 20 mins in presence of NADPH by LC-MS/MS analysis. As to conditions: time 5-20 min. Type of data set: ADME. In general terms: Microsomes from liver hold many membrane-bound enzymes, among them those of drug oxidation.
T3 sequence (P11712 whole entry): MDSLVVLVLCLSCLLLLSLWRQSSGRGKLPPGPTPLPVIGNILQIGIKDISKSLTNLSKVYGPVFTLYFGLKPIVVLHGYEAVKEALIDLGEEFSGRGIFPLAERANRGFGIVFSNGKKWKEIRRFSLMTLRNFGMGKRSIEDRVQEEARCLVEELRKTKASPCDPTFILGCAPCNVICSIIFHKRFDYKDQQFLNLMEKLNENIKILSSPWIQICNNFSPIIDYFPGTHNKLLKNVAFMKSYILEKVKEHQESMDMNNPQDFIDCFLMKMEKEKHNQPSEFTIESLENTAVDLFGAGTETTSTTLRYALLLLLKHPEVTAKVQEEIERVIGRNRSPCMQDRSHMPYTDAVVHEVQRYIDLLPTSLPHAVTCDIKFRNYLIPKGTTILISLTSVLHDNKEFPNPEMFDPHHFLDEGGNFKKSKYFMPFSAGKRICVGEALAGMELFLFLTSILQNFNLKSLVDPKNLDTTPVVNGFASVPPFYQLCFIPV

For data set [8], the target named is T3, Cytochrome P450 2C9. The data set can be described thus: Time dependent inhibition of CYP2C9 in human liver microsomes using diclofenac as substrate in presence of NADPH by LC-MS/MS analysis. The class given is ADME.
The next data set has as its target T4, Cytochrome P450 1A2 (Homo sapiens, UniProt P05177).
T4 sequence (P05177 whole entry): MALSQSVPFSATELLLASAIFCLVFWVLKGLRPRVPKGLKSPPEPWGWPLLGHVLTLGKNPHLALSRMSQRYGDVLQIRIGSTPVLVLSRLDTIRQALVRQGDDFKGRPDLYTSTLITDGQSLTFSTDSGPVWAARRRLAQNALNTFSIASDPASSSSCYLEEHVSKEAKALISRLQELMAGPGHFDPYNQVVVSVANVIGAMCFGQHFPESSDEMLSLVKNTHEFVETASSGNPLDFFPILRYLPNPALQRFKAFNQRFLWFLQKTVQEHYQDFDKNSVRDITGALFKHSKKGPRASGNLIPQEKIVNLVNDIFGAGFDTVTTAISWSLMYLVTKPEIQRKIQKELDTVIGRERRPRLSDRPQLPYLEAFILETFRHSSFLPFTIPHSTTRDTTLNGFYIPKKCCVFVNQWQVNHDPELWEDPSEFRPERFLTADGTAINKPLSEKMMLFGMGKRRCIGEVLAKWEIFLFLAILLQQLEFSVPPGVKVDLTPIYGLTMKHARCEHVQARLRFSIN
Put plainly: Induction of CYP1A2 (unknown origin) assessed as effect on CYP1A2 mRNA expression. Type of data set: ADME.

In another data set the target is T5, Cytochrome P450 2B6 (Homo sapiens, UniProt P20813).
T5 sequence (P20813 whole entry): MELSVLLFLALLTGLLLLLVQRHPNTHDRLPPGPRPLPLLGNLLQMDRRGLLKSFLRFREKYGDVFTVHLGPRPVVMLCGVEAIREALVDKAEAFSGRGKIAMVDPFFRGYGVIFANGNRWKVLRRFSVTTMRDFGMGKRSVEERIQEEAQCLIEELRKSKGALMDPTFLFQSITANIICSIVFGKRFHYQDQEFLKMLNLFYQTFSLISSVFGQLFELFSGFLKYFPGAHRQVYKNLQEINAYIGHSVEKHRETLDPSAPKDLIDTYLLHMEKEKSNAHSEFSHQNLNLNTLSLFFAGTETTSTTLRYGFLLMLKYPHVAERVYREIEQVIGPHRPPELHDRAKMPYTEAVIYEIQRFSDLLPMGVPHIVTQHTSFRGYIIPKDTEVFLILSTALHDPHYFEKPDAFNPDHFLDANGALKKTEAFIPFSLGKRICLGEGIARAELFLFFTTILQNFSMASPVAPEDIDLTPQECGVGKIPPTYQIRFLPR
The data set can be described thus: Induction of CYP2B6 (unknown origin) assessed as effect on CYP2B6 mRNA expression. Type of data set: ADME.

A further data set concerns the target Cytochrome P450 3A4 (Homo sapiens, UniProt P08684). Put plainly: Induction of CYP3A4 (unknown origin) assessed as effect on CYP3A4 mRNA expression. The class given is ADME.
Data set [9] is described as follows: Half life in human at 16 mg, iv administered as single infusion for 30 to 60 mins. As to conditions: in vivo, time 30-60 min. The class given is ADME, organism-based.
A short description of data set [10]: Cmax in human at 25 mg, iv administered as single infusion for 30 to 60 mins. The class given is ADME, organism-based. Also on record: route intravenous, dose 25 mg, time 30-60. To be noted: in vivo.
Data set [11] can be described thus: Chemical stability of the compound in acidic condition. Type of data set: physicochemical.
A short description of data set [12]: Toxicity in human at 0.1 to 25 mg, iv administered as single dose. The class given is organism-based. As to conditions: in vivo, dose 0.1-25 mg.
Data set [13] has as its target T6, 5'-nucleotidase (Homo sapiens, UniProt P21589). The data set can be described thus: Inhibition of human CD73 expressed in CHO cells using AMP as substrate preincubated for 60 mins followed by substrate addition and measured after 60 mins by PiColorLock gold reagent based colorimetric assay. Type of data set: cell-based.
For data set [14], the target named is T6, 5'-nucleotidase. Put plainly: Inhibition of soluble human CD73.
Data set [15] concerns the target T6, 5'-nucleotidase. The data set can be described thus: Inhibition of CD73 in human CD8-positive T cells using AMP as substrate preincubated for 60 mins followed by substrate addition and measured after 2.5 hrs by PiColorLock gold reagent based colorimetric assay. The class given is cell-based, CD8-positive T cell.
For data set [16], the target named is T6, 5'-nucleotidase. The data set can be described thus: Inhibition of CD73 in human PBMC using AMP as substrate preincubated for 60 mins followed by substrate addition and measured after 2.5 hrs by PiColorLock gold reagent based colorimetric assay. Type of data set: tissue-based.

T6 sequence (P21589 whole entry): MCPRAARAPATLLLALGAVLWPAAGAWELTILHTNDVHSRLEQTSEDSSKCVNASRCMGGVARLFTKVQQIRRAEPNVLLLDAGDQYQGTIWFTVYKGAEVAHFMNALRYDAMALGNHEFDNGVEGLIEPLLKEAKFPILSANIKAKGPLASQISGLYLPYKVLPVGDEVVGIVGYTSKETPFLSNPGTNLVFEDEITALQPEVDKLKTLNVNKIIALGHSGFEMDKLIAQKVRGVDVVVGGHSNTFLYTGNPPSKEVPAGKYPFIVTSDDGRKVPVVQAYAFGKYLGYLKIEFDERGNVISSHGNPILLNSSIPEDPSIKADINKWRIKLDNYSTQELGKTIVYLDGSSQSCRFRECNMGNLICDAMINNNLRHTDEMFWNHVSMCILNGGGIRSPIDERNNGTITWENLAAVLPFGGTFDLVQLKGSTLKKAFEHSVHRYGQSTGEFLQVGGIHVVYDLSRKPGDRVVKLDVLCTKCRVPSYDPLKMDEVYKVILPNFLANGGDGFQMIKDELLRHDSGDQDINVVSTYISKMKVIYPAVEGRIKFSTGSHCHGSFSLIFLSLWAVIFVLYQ
Sequence of Cytochrome P450 3A4 (P08684 whole entry, the tested form may be a part): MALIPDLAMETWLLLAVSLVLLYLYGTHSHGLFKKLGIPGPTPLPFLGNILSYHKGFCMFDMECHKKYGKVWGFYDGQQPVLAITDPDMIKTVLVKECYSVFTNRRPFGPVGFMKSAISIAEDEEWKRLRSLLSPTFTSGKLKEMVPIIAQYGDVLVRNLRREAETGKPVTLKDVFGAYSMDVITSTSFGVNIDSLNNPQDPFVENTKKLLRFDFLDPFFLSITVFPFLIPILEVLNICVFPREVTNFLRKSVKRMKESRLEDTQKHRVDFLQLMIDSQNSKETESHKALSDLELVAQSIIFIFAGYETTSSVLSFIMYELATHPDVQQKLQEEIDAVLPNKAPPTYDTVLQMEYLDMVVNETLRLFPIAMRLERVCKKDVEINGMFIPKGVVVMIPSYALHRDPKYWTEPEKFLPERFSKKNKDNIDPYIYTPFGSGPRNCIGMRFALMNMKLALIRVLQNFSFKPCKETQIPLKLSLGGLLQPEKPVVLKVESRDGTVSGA

In general, clearance refers to the rate of elimination divided by the concentration. One may read the IC50 as the concentration that gives 50% inhibition. The fraction unbound is the share of the substance not bound to proteins or other matrix. As usually defined, the half-life is how long it takes for the measured level to halve. Broadly, the Cmax is the highest concentration seen after dosing. Regarding `C[C@H](Nc1cc(Cl)nc2c1cnn2[C@@H]1O[C@H](COP(=O)(O)CP(=O)(O)O)[C@@H](O)[C@H]1O)c1ccccc1F`, the Activity entry is “Not Active” in [1]; “Not Active” at Cytochrome P450 1A2; “Not Active” on Cytochrome P450 2B6; “Not Active” at Cytochrome P450 3A4; “Non-Toxic” in data set [12]. The Stabilty entry in data set [2] and in data set [11] was “Stable” in each case. This compound had a clearance in data set [3] of 0.333 mL/min/kg. The same compound showed a half-inhibitory concentration (IC50) in data set [4] of more than 10 µM. This compound displayed an unbound share (fraction unbound) in [5] of 0.0089. Moreover, in data set [6], the Vd worked out at 0.12 L/kg. In addition, the INH on Cytochrome P450 2C9 [7] is more than 100 µM. At Cytochrome P450 2C9 [8], the TDI result was “Not Active”. In [9], this compound gave a half-life of 2.77 days. In data set [10], this compound had a Cmax of 5170 ng/mL.
On to `C[C@H](Nc1nc(Cl)nc2c1cnn2[C@@H]1O[C@H](COP(=O)(O)CP(=O)(O)O)[C@@H](O)[C@H]1O)c1ccccc1`, for which the IC50 against 5'-nucleotidase [13] was 0.045 nM; on 5'-nucleotidase [14] it was 0.053 nM; at 5'-nucleotidase [15], 2.7 pM; on 5'-nucleotidase [16] it was 0.0085 nM; in data set [4] it was more than 10 µM. The clearance in [3] was 1.07 mL/min/kg. In data set [5], this compound displayed a fraction unbound of 0.029. Further, the Vd in data set [6] came to 0.12 L/kg.
On to `C[C@H](Nc1cc(Cl)nc2c1cnn2[C@@H]1O[C@H](COP(=O)(O)CP(=O)(O)O)[C@@H](O)[C@H]1O)c1ccc(F)cc1`, for which the Stabilty entry in data set [2] and in data set [11] was “Stable” each time. Moreover, the IC50 was 0.115 nM against 5'-nucleotidase [13], 10 pM against 5'-nucleotidase [15], 0.021 nM on 5'-nucleotidase [16] and more than 10 µM in [4]. Moreover, the clearance in [3] is 0.15 mL/min/kg. The same compound registered a fraction unbound in data set [5] of 0.0065. Besides, the Vd in data set [6] turned out to be 0.12 L/kg.
